Assay results taken from patent publication US20190284136A1, “INDOLINE DERIVATIVES” (ViiV HEALTHCARE UK LIMITED, priority 2016, published 2019).

System: HIV
Test: Table 1 IC50 of the examples (assay method not given; patent concerns inhibiting HIV replication)
Format: cell-based
Details: Human immunodeficiency virus 1

| Compound | IC50 |
| --- | --- |
| Cc1cc2c(c(-c3cc(F)c4c(c3C)CCCO4)c1[C@H](OC(C)(C)C)C(=O)O)CCN2C(=O)c1ccc2c(c1)CCC2 (atropisomer, axis not shown) [Example 122, (S)-2-(tert-Butoxy)-2-((R)-1-(2,3-dihydro-1H-indene-5-carbonyl)-4-(8-fluoro-5-methylchroman-6-yl)-6-methylindolin-5-yl)acetic acid] | 17 nM |
| COc1c(F)ccc(F)c1C(=O)N1CCc2c1cc(C)c([C@H](OC(C)(C)C)C(=O)O)c2-c1ccc(C)cc1 [Example 15, (S)-2-(tert-Butoxy)-2-(1-(3,6-difluoro-2-methoxybenzoyl)-6-methyl-4-(p-tolyl)indolin-5-yl)acetic acid] | 117 nM |
| Cc1ccc(-c2c3c(cc(C)c2[C@H](OC(C)(C)C)C(=O)O)N(S(=O)(=O)c2ccc(F)c(F)c2)CC3)cc1 [Example 35, (S)-2-(tert-Butoxy)-2-(1-((3,4-difluorophenyl)sulfonyl)-6-methyl-4-(p-tolyl)indolin-5-yl)acetic acid] | 9800 nM |
| Cc1cc2c(c(-c3cc(F)c4c(c3C)CCCO4)c1[C@H](OC(C)(C)C)C(=O)O)CCN2C(=O)c1cc(F)cc(F)c1 (atropisomer, axis not shown) [Example 57, (S)-2-(tert-Butoxy)-2-((R)-1-(3,5-difluorobenzoyl)-4-(8-fluoro-5-methylchroman-6-yl)-6-methylindolin-5-yl)acetic acid] | 2 nM |
| Cc1ccc(-c2c3c(cc(C)c2[C@H](OC(C)(C)C)C(=O)O)N(C(=O)c2ccccn2)CC3)cc1 [Example 38, (S)-2-(tert-Butoxy)-2-(6-methyl-1-picolinoyl-4-(p-tolyl)indolin-5-yl)acetic acid] | 18 nM |
| COc1ccc(C(=O)N2CCc3c2cc(C)c([C@H](OC(C)(C)C)C(=O)O)c3-c2ccc(C)cc2)cc1F [Example 11, (S)-2-(tert-Butoxy)-2-(1-(3-fluoro-4-methoxybenzoyl)-6-methyl-4-(p-tolyl)indolin-5-yl)acetic acid] | 4 nM |
| COc1cc(Cl)cc(C(=O)N2CCc3c2cc(C)c([C@H](OC(C)(C)C)C(=O)O)c3-c2cc(F)c3c(c2C)CCCO3)c1 (atropisomer, axis not shown) [Example 117] | 16 nM |
| COc1ccc(C(=O)N2CCc3c2cc(C)c([C@H](OC(C)(C)C)C(=O)O)c3-c2cc(OC)c3c(c2C)CCCO3)cc1C (atropisomer, axis not shown) [Example 192, (S)-2-(tert-Butoxy)-2-((R)-1-(4-methoxy-3-methylbenzoyl)-4-(8-methoxy-5-methylchroman-6-yl)-6-methylindolin-5-yl)acetic acid] | 5 nM |
| COc1ccc(C(=O)N2CCc3c2cc(C)c([C@H](OC(C)(C)C)C(=O)O)c3-c2cc(F)c3c(c2C)CCCO3)c(OC)c1 (atropisomer, axis not shown) [Example 88, (S)-2-(tert-Butoxy)-2-((R)-1-(2,4-dimethoxybenzoyl)-4-(8-fluoro-5-methylchroman-6-yl)-6-methylindolin-5-yl)acetic acid] | 5 nM |
| Cc1cccc(C(=O)N2CCc3c2cc(C)c([C@H](OC(C)(C)C)C(=O)O)c3-c2cc(F)c3c(c2C)CCCO3)c1Cl (atropisomer, axis not shown) [Example 135, (S)-2-(tert-Butoxy)-2-((R)-1-(2-chloro-3-methylbenzoyl)-4-(8-fluoro-5-methylchroman-6-yl)-6-methylindolin-5-yl)acetic acid] | 4 nM |
| COc1ccc(C(=O)N2CCc3c2cc(C)c([C@H](OC(C)(C)C)C(=O)O)c3-c2cc(F)c3c(c2C)CCCO3)cc1C(F)(F)F (atropisomer, axis not shown) [Example 157, (S)-2-(tert-Butoxy)-2-((R)-4-(8-fluoro-5-methylchroman-6-yl)-1-(4-methoxy-3-(trifluoromethyl)benzoyl)-6-methylindolin-5-yl)acetic acid] | 6 nM |
| Cc1cc2c(c(-c3cc(F)c4c(c3C)CCCO4)c1[C@H](OC(C)(C)C)C(=O)O)CCN2C(=O)c1cnccc1Cl (atropisomer, axis not shown) [Example 51, (S)-2-(tert-Butoxy)-2-((R)-1-(4-chloronicotinoyl)-4-(8-fluoro-5-methylchroman-6-yl)-6-methylindolin-5-yl)acetic acid] | 17 nM |
| Cc1ccc(-c2c3c(cc(C)c2[C@H](OC(C)(C)C)C(=O)O)N(C(=O)OC(C)(C)C)CC3)cc1 [Example 24, (S)-2-(tert-Butoxy)-2-(1-(tert-butoxycarbonyl)-6-methyl-4-(p-tolyl)indolin-5-yl)acetic acid] | 47 nM |
| COc1cccc(C(=O)N2CCc3c2cc(C)c([C@H](OC(C)(C)C)C(=O)O)c3-c2cc(F)c3c(c2C)CCCO3)c1 (atropisomer, axis not shown) [Example 162, (S)-2-(tert-Butoxy)-2-((R)-4-(8-fluoro-5-methylchroman-6-yl)-1-(3-methoxybenzoyl)-6-methylindolin-5-yl)acetic acid] | 7 nM |
| COc1cccc(C(=O)N2CCc3c2cc(C)c([C@H](OC(C)(C)C)C(=O)O)c3-c2cc(F)c3c(c2C)CCCO3)c1OC (atropisomer, axis not shown) [Example 84, (S)-2-(tert-Butoxy)-2-((R)-1-(2,3-dimethoxybenzoyl)-4-(8-fluoro-5-methylchroman-6-yl)-6-methylindolin-5-yl)acetic acid] | 41 nM |
| Cc1ccc(-c2c3c(cc(C)c2[C@H](OC(C)(C)C)C(=O)O)N(C(=O)c2cccc(F)c2)CC3)cc1 [Example 29, (S)-2-(tert-Butoxy)-2-(1-(3-fluorobenzoyl)-6-methyl-4-(p-tolyl)indolin-5-yl)acetic acid] | 17 nM |
| Cc1cccc(C(=O)N2CCc3c2cc(C)c([C@H](OC(C)(C)C)C(=O)O)c3-c2cc(F)c3c(c2C)CCCO3)c1F (atropisomer, axis not shown) [Example 118, (S)-2-(tert-Butoxy)-2-((R)-1-(2-fluoro-3-methylbenzoyl)-4-(8-fluoro-5-methylchroman-6-yl)-6-methylindolin-5-yl)acetic acid] | 5 nM |
| Cc1ccc(Cl)cc1C(=O)N1CCc2c1cc(C)c([C@H](OC(C)(C)C)C(=O)O)c2-c1cc(F)c2c(c1C)CCCO2 (atropisomer, axis not shown) [Example 149] | 5 nM |
| CNC(=O)c1ccc(C(=O)N2CCc3c2cc(C)c([C@H](OC(C)(C)C)C(=O)O)c3-c2cc(F)c3c(c2C)CCCO3)cc1 (atropisomer, axis not shown) [Example 95, (S)-2-(tert-Butoxy)-2-((R)-4-(8-fluoro-5-methylchroman-6-yl)-6-methyl-1-(4-(methylcarbamoyl)benzoyl)indolin-5-yl)acetic acid] | 142 nM |
| COc1ccc(C(=O)N2CCc3c2cc(C)c([C@H](OC(C)(C)C)C(=O)O)c3-c2cc(C(F)(F)F)c3c(c2C)CCCO3)cc1C (atropisomer, axis not shown) [Example 196, (S)-2-(tert-Butoxy)-2-((R)-1-(4-methoxy-3-methylbenzoyl)-6-methyl-4-(5-methyl-8-(trifluoromethyl)chroman-6-yl)indolin-5-yl)acetic acid] | 359 nM |
| Cc1ccc(-c2c3c(cc(C)c2C(OC(C)(C)C)C(=O)O)N(Cc2ccc(F)c(F)c2)CC3)cc1 (centres unmarked) [Example 1] | 517 nM |
| Cc1ccc(-c2c3c(cc(C)c2C(OC(C)(C)C)C(=O)O)N(S(=O)(=O)N2CCCCC2)CCC3)cc1 (centres unmarked) [Example 213, 2-(tert-Butoxy)-2-(7-methyl-1-(piperidin-1-ylsulfonyl)-5-(p-tolyl)-1,2,3,4-tetrahydroquinolin-6-yl)acetic acid] | 3410 nM |
| COc1ccc(C(=O)N2CCc3c2cc(C)c([C@H](OC(C)(C)C)C(=O)O)c3-c2cc(F)c3c(c2C)CCCO3)cn1 (atropisomer, axis not shown) [Example 170, (S)-2-(tert-Butoxy)-2-((R)-4-(8-fluoro-5-methylchroman-6-yl)-1-(6-methoxynicotinoyl)-6-methylindolin-5-yl)acetic acid] | 14 nM |
| Cc1ccc(F)cc1C(=O)N1CCc2c1cc(C)c([C@H](OC(C)(C)C)C(=O)O)c2-c1cc(F)c2c(c1C)CCCO2 (atropisomer, axis not shown) [Example 80, (S)-2-(tert-Butoxy)-2-((R)-1-(5-fluoro-2-methylbenzoyl)-4-(8-fluoro-5-methylchroman-6-yl)-6-methylindolin-5-yl)acetic acid] | 4 nM |
| Cc1cc2c(ccn2Cc2ccccn2)c(-c2cc(F)c3c(c2C)CCCO3)c1[C@H](OC(C)(C)C)C(=O)O (atropisomer, axis not shown) [Example 201, (S)-2-(tert-Butoxy)-2-((R)-4-(8-Fluoro-5-methylchroman-6-yl)-6-methyl-1-(pyridin-2-ylmethyl)-1H-indol-5-yl)acetic acid] | 80 nM |
| COc1cncc(C(=O)N2CCc3c2cc(C)c([C@H](OC(C)(C)C)C(=O)O)c3-c2cc(F)c3c(c2C)CCCO3)c1 [Example 151, (2S)-2-(tert-Butoxy)-2-(4-(8-fluoro-5-methylchroman-6-yl)-1-(5-methoxynicotinoyl)-6-methylindolin-5-yl)acetic acid] | 17 nM |
| COc1c(F)cccc1C(=O)N1CCc2c1cc(C)c([C@H](OC(C)(C)C)C(=O)O)c2-c1ccc(C)cc1 [Example 27, (S)-2-(tert-Butoxy)-2-(1-(3-fluoro-2-methoxybenzoyl)-6-methyl-4-(p-tolyl)indolin-5-yl)acetic acid] | 7 nM |
| COc1c(F)cccc1Cn1ccc2c(-c3cc(F)c4c(c3C)CCCO4)c([C@H](OC(C)(C)C)C(=O)O)c(C)cc21 (atropisomer, axis not shown) [Example 200, (S)-2-(tert-Butoxy)-2-((R)-1-(3-Fluoro-2-methoxybenzyl)-4-(8-fluoro-5-methylchroman-6-yl)-6-methyl-1H-indol-5-yl)acetic acid] | 34 nM |
| Cc1cc2c(c(-c3cc(F)c4c(c3C)CCCO4)c1[C@H](OC(C)(C)C)C(=O)O)CCN2C(=O)c1ccc(Cl)c(Cl)c1 (atropisomer, axis not shown) [Example 61, (S)-2-(tert-Butoxy)-2-((R)-1-(3,4-dichlorobenzoyl)-4-(8-fluoro-5-methylchroman-6-yl)-6-methylindolin-5-yl)acetic acid] | 17 nM |
